Legend:
[1] = tested on: MAMEL-3M melanoma cell line; assay: Cell growth inhibition, WST-8 assay, MAMEL-3M; type: cell-based; conditions: 96 h, 4 days
Experimental: (§1) Cells were seeded in 96-well flat bottom cell culture plates at a density of 3000 cells/well with a tested compound and incubated at 37° C. in an atmosphere of 95% air and 5% CO2 for 4 days. The rate of cell growth inhibition after treatment with different concentrations of the compound was determined using a WST-8 kit (2-(2-methoxy-4-nitrophenyl)-3-(4-nitrophenyl)-5-(2, 4 disulfophenyl)-2H-tetrazolium monosodium salt; Dojindo Molecular Technologies, Inc., Gaithersburg, Md.). WST-8 was added at a final concentration of 10% to each well, and then the plates were incubated at 37° C. for 2-3 hrs. The absorbance of the samples was measured at 450 nm using a ULTRA Tecan Reader (Molecular Device).

MAMLE-3M cells = assay: Trypan blue cell viability assay, MAMLE-3M; type: cell-based; conditions: 100 nM, 2 days
Experimental: 0.3×10^6 cells were seeded in 6 well plates and incubated at 37° C. in an atmosphere of 95% air and 5% CO2 without or with tested compound for 2 days. A 1:1 dilution of 0.4% Trypan blue (Invitrogen Corporation) was used to determine cell viability.

[2] = tested on: MDA-MB-231 (2LMP) human breast cancer cells; assay: Cell growth inhibition by cisplatin or mitoxantrone with SH-164; type: cell-based; conditions: 100 nM
Experimental: as §1

[3] = tested on: MDA-MB-231 and SK-OV-3 cancer cell lines; assay: Role of caspase-8, -3 and -9 (siRNA, caspase inhibitors) in activity of Smac mimetics; type: cell-based; conditions: siRNA
Description: To examine the role of caspase-8, -3 and -9 in apoptosis induction by Smac mimetics, siRNA was employed against these caspases in MDA-MB-231 and SK-OV-3 cancer cell lines.

[4] = tested on: HCT116 and MDA-MB-453 cell lines; assay: Activity with exogenous TNFα in resistant cancer cell lines; type: cell-based
[5] = tested on: HCT116 XIAP^+/+ and XIAP^−/− isogenic cell lines; assay: HCT116 XIAP+/+ and XIAP-/- isogenic cell lines, Smac mimetics with TNFα; type: cell-based
Description: To complement the siRNA experiments and to more precisely define the role of XIAP in TNFα-dependent apoptosis induction by Smac mimetics, HCT116 XIAP^+/+ and XIAP^−/− isogenic cell lines were used in further studies (Cummins et al., Cancer Res. 64:3006 (2004)). Since both these cell lines were resistant to SM-122 and SM-164 as a single agent (FIG. 41), the role of XIAP using Smac mimetics in combination with TNFα was investigated.
The combination of SM-164 at these concentrations with TNFα was effective in induction of caspase-3 activation, PARP cleavage and in inhibition of cell growth in the XIAP^+/+ cell line (FIG. 42). Although knockout of XIAP sensitized the HCT116 cells to SM-164 in combination with TNFα, the effect was much less than that observed with the combination of SM-122 with TNFα (FIG. 42).

[6] = tested on: XIAP stably transfected Jurkat leukemia cell line (XIAP-JK) and vector control cell line (VEC-JK); assay: XIAP-overexpressing Jurkat cells, Smac mimetics with TNFα; type: cell-based
Description: The effect of XIAP overexpression in cancer cells on TNFα-dependent apoptosis induction by Smac mimetics was investigated. Since stable transfection of XIAP in those sensitive cancer cell lines was unsuccessful, the previously well-characterized XIAP stably transfected Jurkat leukemia cell line (XIAP-JK) and its vector control cell line (VEC-JK) were employed (Wilkinson et al., Mol. Cell. Biol. 24:7003 (2004)). The VEC-JK cell line with low expression of XIAP was sensitive to SM-122 or SM-164 in combination with TNFα (FIG. 43).

[7] = tested on: MDA-MB-231 xenograft tumor tissues; assay: cIAP-1 degradation and apoptosis in MDA-MB-231 xenograft tumor and normal tissues; type: in vivo, mice
Experimental: To further investigate its therapeutic potential and in vivo mechanism, SM-164 was evaluated in the MDA-MB-231 xenograft model in mice. […] A single dose of SM-164 at 5 mg/kg decreased the level of cIAP-1 protein within 1 h and the effect lasted for at least 24 h. […] Apoptosis was examined by TUNEL staining using the In situ Cell Death Detection Kit (Roche Applied Science). To determine apoptosis in xenograft tumor and normal mouse tissues, severe combined immunodeficient (SCID) mice bearing established tumor were treated with Smac mimetics. Tissues were harvested and TUNEL staining was performed on formaldehyde-fixed, paraffin-embedded tissues. Paraffin-embedded tissue sections, mounted on slides, were deparaffinized and rehydrated by washing in a descending series of alcohol solutions (100%, 95%, 70% and 50%) and PBS. Antigen retrieval was performed by the microwave oven method using a commercially available antigen retrieval buffer (Covance Research Products, Inc.). Tissue sections were blocked with 3% BSA and 20% normal bovine serum in PBS for 30 min at room temperature (RT) to block unspecific binding sites. Tissue sections were incubated in 100 μl of TUNEL mixture [TUNEL mixture=10 μl of Enzyme solution (Vial 1)+90 μl of Label solution (Vial 2)] for 60 min at RT. Tissue section incubated in 90 μl of Label solution (Vial 2), instead of TUNEL mixture was used as negative control. Tissue section preincubated in DNase I recombination in 3000 U/ml of PBS, 1 mg/ml BSA for 10 min RT, followed by incubation with TUNEL mixture was used as positive control. Tissues slides were rinsed with PBS 5 min ×3, and stained with Propidium iodide and mounted and observed under a fluorescent microscope. […] The strong apoptosis induction by SM-164 was still evident at the 24 h time point. […] In contrast to the strong apoptosis induction and damage in xenograft tumor tissues, SM-164 has no effect on all the normal mouse tissues examined, including highly proliferative tissues such as the small intestine, stomach, liver and spleen (FIGS. 47-49).
Using the MDA-MB-231 xenograft model, SM-122 was also examined for its ability to induce cIAP-1 degradation and apoptosis in tumor tissues in vivo.

[8] = tested on: MDA-MB-231 xenograft model; assay: Inhibition of tumor growth in the MDA-MB-231 xenograft model; type: in vivo, mice
Experimental: SM-164 was evaluated for its ability to inhibit tumor growth. […] Treatment with SM-164 at 5 mg/kg reduces the tumor volume from 147±54 mm^3 at the beginning of the treatment (day 25) to 54±32 mm^3 at the end of the treatment (day 36), a reduction of 65%. The strong antitumor activity by SM-164 is long lasting and not transient.

CN[C@@H](C)C(=O)N[C@H]1CCCC[C@H]2CC[C@@H](C(=O)N[C@@H](c3ccccc3)c3cn(CCCCc4ccc(CCCCn5cc([C@@H](NC(=O)[C@@H]6CC[C@@H]7CCCC[C@H](NC(=O)[C@H](C)NC)C(=O)N76)c6ccccc6)nn5)cc4)nn3)N2C1=O [SH-164]
IC50 [1]: 1.4 nM
cell death (MAMLE-3M cells): at least 70%
sensitization to growth inhibition by cisplatin and mitoxantrone [2]: sensitized the cells to growth inhibition by both agents
effect of knockdown of caspase-3 and -8 on activity [3]: markedly attenuated
effect of knockdown of caspase-9 on activity [3]: minimal effect
effect of exogenous TNFα on activity [4]: significantly enhanced
caspase-3 activation, PARP cleavage and cell growth inhibition ([5]; 10-100 nM with TNFα, XIAP+/+ cell line): effective
cIAP-1 degradation ([5]; 10-100 nM, both cell lines): effectively induced cIAP-1 degradation
sensitivity as a single agent ([5]; both cell lines): resistant
sensitivity in combination with TNFα ([6]; VEC-JK cell line): sensitive
sensitivity in combination with TNFα ([6]; XIAP-JK cell line): much less effective than in the VEC-JK cell line
activation of caspase-8, -9, and -3 and cleavage of PARP ([7]; 3 h time point, persisted for 24 h): Robust activation
TUNEL positive tumor cells ([7]; 6 h time point): more than 50%
H&E staining of tumor tissues ([7]; mouse, in vivo): profound damage to tumor tissues
duration of cIAP-1 decrease ([7]; single dose 5 mg/kg): at least 24 h
time to decrease of cIAP-1 protein level in tumor ([7]; single dose 5 mg/kg): ≤ 1 h
effect on normal mouse tissues ([7]; small intestine, stomach, liver, spleen etc.): no effect
tumor growth during the treatment ([8]; 1 mg/kg): completely inhibits tumor growth
tumor volume at the beginning of the treatment ([8]; 5 mg/kg, day 25): 147±54 mm^3
reduction of tumor volume ([8]; 5 mg/kg, day 25 to day 36): 65%
tumor volume at the end of the treatment ([8]; 5 mg/kg, day 36): 54±32 mm^3
efficacy compared with TXT ([8]; 5 mg/kg, end of treatment (p<0.01) or control tumor 750 mm^3 (p<0.02)): statistically more effective than TXT
weight loss or other sign of toxicity ([8]; 1 or 5 mg/kg): no significant weight loss or other sign of toxicity
